Experimental findings from patent US20110028490A1, “4-PHENYL-PIPERAZIN-1-YL-ALKYL-BENZOIMIDAZOL-2-ONE DERIVATIVES AND THEIR USE AS MONOAMINE NEUROT[…]-UPTAKE IN-HIBITORS” (N[…]/S, priority 2008, published 2011) are described below.

Common to all, as to type: biochemical
The subject of test [1] is serotonine (5-HT) reuptake in synaptosomes. In words: Inhibition of 5-HT reuptake in synaptosomes. The settings on record: 3H-5-HT, read-out: 5-HT-uptake IC50. How it is done: (§1) Compounds were tested for their ability to inhibit the reuptake of the monoamine neurotransmitters dopamine (DA) noradrenaline (NA) and serotonine (5-HT) in synaptosomes as described in WO 97/16451 (NeuroSearch A/S).
(§2) The test values are given as IC50 (the concentration (μM) of the test substance which inhibits the specific binding of ^3H-DA, ^3H-NA, or ^3H-5-HT by 50%).

For test [2], the system named is dopamine (DA) reuptake in synaptosomes. In words: Inhibition of DA reuptake in synaptosomes. The settings on record: 3H-DA, read-out: DA-uptake IC50. The procedure: as §1, §2
Test [3] deals with noradrenaline (NA) reuptake in synaptosomes. Put plainly: Inhibition of NA reuptake in synaptosomes. The note with it: 3H-NA, read-out: NA-uptake IC50. The procedure:
as §1, §2

The structures appear in SMILES notation. Structures can show the parent of a compound that is named as a salt. Bounds are passed on as bounds.

As a reminder, the IC50 is the concentration needed to halve the response being measured. Consider `O=c1n(CCN2CCN(c3ccc(Cl)cc3)CC2)c2ccccc2n1C1=CCCCC1` [Compound A3, 1-{2-[4-(4-Chloro-phenyl)-piperazin-1-yl]-ethyl}-3-cyclohex-1-enyl-1,3-dihydro-benzoimidazol-2-one fumaric acid salt], for which the IC50 in test [1] was 22 nM; in test [2] it was 430 nM; in test [3], above 1000 nM.

Consider `C=C(C)n1c(=O)n(CCN2CCN(c3ccc(Cl)c(Cl)c3)CC2)c2ccccc21` [Compound A1, 1-{2-[4-(3,4-Dichloro-phenyl)-piperazin-1-yl]-ethyl}-3-isopropenyl-1,3-dihydro-benzoimidazol-2-one fumaric acid salt], for which the results for the IC50 in test [1], in test [2] and in test [3] were 1 nM, 1100 nM and 1070 nM, respectively.
